Measured values published in patent US10981893B2, “Therapeutic inhibitory compounds” (Attune Pharmaceuticals, Inc., priority 2015, dated 2021).

Legend:
[1] = target: kallikrein in human plasma (Homo sapiens (Human), UniProt P03952); assay: In vitro cellular assay / contact assay: kallikrein activity in ellagic acid-activated human plasma (Z-FR-2-AMC substrate); assay type: biochemical; conditions: human plasma activated with ellagic acid, 37° C.
Method: The ability of the compounds disclosed herein to inhibit cellular kallikrein activity was quantified and the respective EC50 value was determined.
Plasma kallikrein inhibitor C1NH (Athens Research & Technology, Cat #16-16-031509); Ellagic acid (Sigma, E2250); Substrate Z—FR-2-AMC (GL Biochem, Cat #55352); Nunc™ 96-Well Polypropylene MicroWell™ Plates (Nunc, Cat #267342)
All dilutions were prepared in an assay buffer comprising 50 mM Tris-HCl pH 7.2, 150 mM NaCl, and 0.01% Triton X-100.
Four fold serial dilutions were prepared from a 107.53 μM plasma kallikrein inhibitor C1NH stock solution, to yield ten solutions with concentrations between 20 μM and […]. Similarly, four fold serial dilutions were prepared from 10 mM stock solutions of various test compounds, to yield ten solutions with concentrations between 4 mM and 0.015 μM. The ten solutions of the test compounds, prepared by serial dilution, were further diluted 50-fold in the assay buffer.
Human plasma is thawed on ice and centrifuged for 15 min at 4° C. to remove platelets. A 1 mM stock solution of ellagic acid is diluted to 8 μM and mixed with human plasma, after removing platelets, at a ratio of 1:0.8. The mixture of human plasma and ellagic acid was further diluted 32-fold in the assay buffer, to yield the final mixture for use in the inhibition assay.
A 22.5 μL volume of the final mixture of human plasma and ellagic acid was added to a 96-well microwell plate and the plate was incubated for 15 min at 37° C.
The test compounds at various concentrations, also prepared by serial dilutions as described above, are added to the test wells. The volume of test compound added to each test well was 12.5 μL, to yield final concentrations of 20 μM, 5 μM, 1.25 μM, 312.5 nM, 78.125 nM, 19.531 nM, 4.883 nM, 1.221 nM, 0.305 nM, and 0.076 nM. Each test compound concentration was tested in duplicates.
In addition to the inhibitor control and test wells, the 96 well assay plate includes positive control wells which contained the mixture of human plasma and ellagic acid without C1NH inhibitor or test compounds, and background wells which contained neither the mixture of human plasma and ellagic acid nor the test compounds. The total volume of liquid in positive control and background wells was brought up to 35 μL, using the assay buffer.
The assay plate containing C1NH inhibitors and test compounds mixed with human plasma and ellagic acid and appropriate controls was incubated at 37° C. for 5 min. A 10 mM stock solution of substrate Z—FR-2-AMC was diluted to 133.2 μM in the assay buffer, and 15 μL of the diluted substrate was added to each well, to yield a final substrate concentration of 40 μM in each well. […]
The enzyme reaction was quantified by immediate kinetic reading of the assay plate using excitation/emission wavelengths of 330 nm/440 nm respectively. Fluorescence intensity was recorded for 60 min, using a time interval of 43 sec.
The inhibition activity of the test compounds were evaluated using the IC50 values, calculated according to the dose-response curve of the test compounds, fitted using the “log(inhibitor)-response(variable slope)” equation in GraphPadPrism software (GraphPad Software, Inc.).
The percentage inhibition was calculated using the following equation:
[formula] where, Mean(BG) is the average value of the fluorescence intensity of the background wells and Mean(PC) is the average value of the fluorescence intensity of the positive control wells. […]

human Plasma Kallikrein = human Plasma Kallikrein (Homo sapiens (Human), UniProt P03952); assay: In vitro enzyme inhibition of human plasma kallikrein (Pro-Phe-Arg-AMC cleavage); assay type: biochemical; conditions: PFR-AMC substrate, 37° C., read-out: hPK IC50
human Plasma Kallikrein, sequence (P03952 391-638 limits assumed): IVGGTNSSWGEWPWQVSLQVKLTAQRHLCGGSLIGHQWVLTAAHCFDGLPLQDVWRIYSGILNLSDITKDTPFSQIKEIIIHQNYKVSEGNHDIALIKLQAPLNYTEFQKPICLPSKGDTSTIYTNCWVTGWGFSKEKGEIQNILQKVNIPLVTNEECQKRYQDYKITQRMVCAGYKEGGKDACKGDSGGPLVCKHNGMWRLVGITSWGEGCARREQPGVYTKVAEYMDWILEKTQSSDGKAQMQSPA
human Plasma Kallikrein, sequence (P03952 20-390 partner limits assumed): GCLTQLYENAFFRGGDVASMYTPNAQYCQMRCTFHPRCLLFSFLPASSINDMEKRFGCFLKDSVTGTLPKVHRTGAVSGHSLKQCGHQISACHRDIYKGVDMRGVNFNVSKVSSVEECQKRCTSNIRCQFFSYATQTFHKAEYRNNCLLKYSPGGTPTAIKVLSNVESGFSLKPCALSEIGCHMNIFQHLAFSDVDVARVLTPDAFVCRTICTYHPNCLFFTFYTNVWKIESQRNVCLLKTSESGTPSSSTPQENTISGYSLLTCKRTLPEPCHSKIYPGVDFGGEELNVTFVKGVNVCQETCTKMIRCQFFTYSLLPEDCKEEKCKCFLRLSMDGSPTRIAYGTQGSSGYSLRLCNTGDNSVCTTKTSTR
Method: The ability of the compounds disclosed herein to inhibit human plasma kallikrein activity was quantified according to the procedures below.
A 10 mM solution of the test compound was made in DMSO. This solution was serially diluted 1:5 in DMSO to yield 2000, 400, 80, 16, 3.2, 0.64, 0.128, 0.0256 and 0.00512 μM compound test solutions. A control tube containing only DMSO is included. 16 μL of each compound test solution was combined with 384 μL of assay buffer (50 mM Tris-HCl pH 7.5, 150 mM NaCl, 0.01% Triton X-100) to yield a “4× test compound buffer stock”.
Separately, a 40 nM solution of human Plasma Kallikrein (Abcam) and a 93.6 μM solution Pro-Phe-Arg-AMC (Bachem) were made using assay buffer. These solutions are hereby refereed to as 4×hPK and 2×PFR-AMC, respectively.
60 μL of each 4× test compound buffer stock was combined with 60 μL of 4× hPK to yield 120 μL of “2× test compound buffer stock/2×hPK”. 50 μL was removed from this mixture and placed into duplicate wells on a Microfluor 1 Black U-bottom microtiter plate (Thermo Scientific). This plate was incubated for 5 minutes at 37° C. To each well, 50 μL of pre-warmed 2×PFR-AMC was added to start the enzymatic reaction. Cleavage of PFR-AMC was monitored in a Biotek Synergy H4 reader set at 37° C. Readings are taken every 43 seconds for 1 hour. The highest mean velocity over 20 reads (˜15 minutes) is used to calculate the IC50. The IC50 is calculated using the Gen5 (Biotek Instruments).
The ability of the compounds in Table 1 to inhibit human plasma kallikrein activity was determined and the data is shown in Table 3.

kallikrein in human plasma, sequence (P03952 391-638 limits assumed): as the sequence (P03952 391-638 limits assumed) above
kallikrein in human plasma, sequence (P03952 20-390 partner limits assumed): as the sequence (P03952 20-390 partner limits assumed) above

SMILES: Cc1cc(N)nc(C)c1CNC(=O)c1ccc(=O)n(Cc2ccc3ncc(Cl)cc3c2)c1 [Example 21, N-((6-amino-2,4-dimethylpyridin-3-yl)methyl)-1-((3-chloroquinolin-6-yl)methyl)-6-oxo-1,6-dihydropyridine-3-carboxamide]
- EC50 [1]: ≤ 100 nM
- IC50 (human Plasma Kallikrein): ≤ 100 nM

SMILES: Cc1cc(N)nc(C)c1CNC(=O)c1cncc(Cc2ccc3ncc(Cl)cc3c2)c1 [Example 22, N-((6-amino-2,4-dimethylpyridin-3-yl)methyl)-5-((3-chloroquinolin-6-yl)methyl)nicotinamide]
- EC50 [1]: ≤ 100 nM
- IC50 (human Plasma Kallikrein): ≤ 100 nM

SMILES: Cc1nc(N)ccc1CNC(=O)c1ccnc(Cc2ccc(Cn3ccccc3=O)c(S(C)(=O)=O)c2)c1 [Example 23, N-((6-amino-2-methylpyridin-3-yl)methyl)-2-(3-(methylsulfonyl)-4-((2-oxopyridin-1(2H)-yl)methyl)benzyl)isonicotinamide]
- EC50 [1]: ≤ 100 nM
- IC50 (human Plasma Kallikrein): ≤ 100 nM

SMILES: Cc1cc(N)nc(C)c1CNC(=O)c1cncc(Cc2ccc3ncc(Cl)cc3c2)n1 [Example 25, N-((6-amino-2,4-dimethylpyridin-3-yl)methyl)-6-((3-chloroquinolin-6-yl)methyl)pyrazine-2-carboxamide]
- EC50 [1]: ≤ 100 nM
- IC50 (human Plasma Kallikrein): ≤ 100 nM

SMILES: CS(=O)(=O)c1cc(Cc2cc(C(=O)NCc3cnc4[nH]cc(Cl)c4c3)ccn2)ccc1Cn1ccccc1=O [Example 29]
- EC50 [1]: ≤ 100 nM
- IC50 (human Plasma Kallikrein): ≤ 100 nM
